# Measured values taken from patent US9376442B2, “Methylpyrrolopyrimidinecarboxamides” (Takeda GmbH, priority 2009, dated 2016).
# What was measured:
# PDE5A1 = target: T1, PDE5A1 (Homo sapiens, UniProt O76074); experiment: Inhibition of type 5 phosphodiesterase (PDE5) activity, modified SPA test with human platelet lysate; assay type: biochemical; conditions: 0.5 μM cGMP, read-out: PDE5A1 inhibitory values [measured as −log IC50 (mol/l)] (converted)
# T1 construct: from tissue; host or cells: human platelets from fresh donor blood (10,000 x g supernatant of sonicated lysate)
# In short: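 Scintillation proximity assay with [3H]cGMP tracer at 0.5 μM total cGMP, stopped after 15 min with beads containing IBMX. PDE3 and PDE2 activities suppressed with motapizone (1 μM) and a PDE2 inhibitor (10 nM). Human platelet supernatant served as the enzyme, with compound preincubated 5 min at 37° C; IC50 values from concentration-effect curves.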
# PDE4B1 = target: T2, PDE4B1 (Homo sapiens, UniProt Q07343); experiment: Inhibition of type 4 phosphodiesterase (PDE4) activity, modified SPA test with recombinant PDE4B1 expressed in SF21 insect cells; assay type: biochemical; conditions: recombinant PDE4B1, 0.5 μM cAMP, read-out: PDE4B1 inhibitory values [measured as −log IC50 (mol/l)] (converted)
# T2 construct: made in house; host or cells: SF21 insect cells (baculovirus; pCRBac vector), 1000 x g supernatant of homogenate
# T2 sequence (Q07343 whole entry): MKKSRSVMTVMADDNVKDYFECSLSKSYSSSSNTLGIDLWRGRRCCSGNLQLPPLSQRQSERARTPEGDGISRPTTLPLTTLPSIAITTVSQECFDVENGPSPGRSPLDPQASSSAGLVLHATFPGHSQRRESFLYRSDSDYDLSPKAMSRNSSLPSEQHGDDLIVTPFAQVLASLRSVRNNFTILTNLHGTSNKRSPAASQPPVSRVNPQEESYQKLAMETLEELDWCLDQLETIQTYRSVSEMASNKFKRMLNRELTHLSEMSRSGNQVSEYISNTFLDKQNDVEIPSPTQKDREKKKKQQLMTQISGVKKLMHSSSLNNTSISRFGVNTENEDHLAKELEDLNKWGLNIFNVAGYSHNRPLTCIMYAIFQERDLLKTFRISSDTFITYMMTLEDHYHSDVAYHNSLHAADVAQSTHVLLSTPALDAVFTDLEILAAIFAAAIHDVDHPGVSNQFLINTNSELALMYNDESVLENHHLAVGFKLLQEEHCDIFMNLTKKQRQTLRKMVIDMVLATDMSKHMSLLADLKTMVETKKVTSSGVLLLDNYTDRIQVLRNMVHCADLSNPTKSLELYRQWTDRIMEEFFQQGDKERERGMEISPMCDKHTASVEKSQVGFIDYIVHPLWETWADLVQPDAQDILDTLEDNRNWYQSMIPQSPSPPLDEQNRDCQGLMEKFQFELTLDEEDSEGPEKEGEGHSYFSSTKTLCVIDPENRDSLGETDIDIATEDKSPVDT
# In short: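 Modified [3H]cAMP SPA using 1000×g supernatant of SF21 cells expressing recombinant human PDE4B1, in 20 mM Tris pH 7.4, 0.1 mg/ml BSA, 5 mM Mg2+, 0.5 μM cAMP. After 5 min preincubation at 37 °C, 15 min reaction, stopped with SPA beads plus IBMX; IC50 by non-linear regression.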
SMILES,IC50 (PDE5A1),IC50 (PDE4B1)
"Cc1ccc(OCC2CC2)c(-c2ncnc3c(C(=O)N[C@H]4CC[C@@H](NC(=O)[C@H](C)O)CC4)c(C)[nH]c23)c1 [Example F56, 4-[2-(Cyclopropylmethoxy)-5-methylphenyl]-N-(cis-4-{[(2S)-2-hydroxypropanoyl]amino}cyclohexyl)-6-methyl-5H-pyrrolo[3,2-d]pyrimidine-7-carboxamide]",< 1 nM,< 100 nM
"Cc1[nH]c2c(-c3cc(C(F)(F)F)ccc3OCC3CC3)ncnc2c1C(=O)NC1CCN(C(=O)CO)CC1 [Example F57, 4-[2-(Cyclopropylmethoxy)-5-(trifluoromethyl)phenyl]-N-[1-(hydroxyacetyl)piperidin-4-yl]-6-methyl-5H-pyrrolo[3,2-d]pyrimidine-7-carboxamide]",< 1 nM,< 100 nM
"Cc1[nH]c2c(-c3cc(C(F)(F)F)ccc3OCC3CC3)ncnc2c1C(=O)NC1CCN(C(=O)[C@H](C)O)CC1 [Example F58, 4-[2-(Cyclopropylmethoxy)-5-(trifluoromethyl)phenyl]-N-{1-[(2S)-2-hydroxypropanoyl]piperidin-4-yl}-6-methyl-5H-pyrrolo[3,2-d]pyrimidine-7-carboxamide]",< 1 nM,100 to 1000 nM
"Cc1[nH]c2c(-c3cc(C(F)(F)F)ccc3OCC3CC3)ncnc2c1C(=O)N[C@H]1CC[C@H](NC(=O)CO)CC1 [Example F59, 4-[2-(Cyclopropylmethoxy)-5-(trifluoromethyl)phenyl]-N-{trans-4-[(hydroxyacetyl)amino]cyclohexyl}-6-methyl-5H-pyrrolo[3,2-d]pyrimidine-7-carboxamide]",< 1 nM,< 100 nM
"Cc1[nH]c2c(-c3cc(C(F)(F)F)ccc3OCC3CC3)ncnc2c1C(=O)N[C@H]1CC[C@H](NC(=O)[C@H](C)O)CC1 [Example F60, 4-[2-(Cyclopropylmethoxy)-5-(trifluoromethyl)phenyl]-N-(trans-4-{[(2S)-2-hydroxypropanoyl]amino}cyclohexyl)-6-methyl-5H-pyrrolo[3,2-d]pyrimidine-7-carboxamide]",< 1 nM,< 100 nM
"Cc1[nH]c2c(-c3cc(C(F)(F)F)ccc3OCC3CC3)ncnc2c1C(=O)N[C@H]1CC[C@@H](NC(=O)CO)CC1 [Example F61, 4-[2-(Cyclopropylmethoxy)-5-(trifluoromethyl)phenyl]-N-{cis-4-[(hydroxyacetyl)amino]cyclohexyl}-6-methyl-5H-pyrrolo[3,2-d]pyrimidine-7-carboxamide]",< 1 nM,< 100 nM
"Cc1[nH]c2c(-c3cc(C(F)(F)F)ccc3OCC3CC3)ncnc2c1C(=O)N[C@H]1CC[C@@H](NC(=O)[C@H](C)O)CC1 [Example F62, 4-[2-(Cyclopropylmethoxy)-5-(trifluoromethyl)phenyl]-N-(cis-4-{[(2S)-2-hydroxypropanoyl]amino}cyclohexyl)-6-methyl-5H-pyrrolo[3,2-d]pyrimidine-7-carboxamide]",< 1 nM,< 100 nM
"CCc1ccc(OCC2CC2)c(-c2ncnc3c(C(=O)N[C@H]4CC[C@H](NC(=O)CO)CC4)c(C)[nH]c23)c1 [Example F93, 4-[2-(Cyclopropylmethoxy)-5-ethylphenyl]-N-{trans-4-[(hydroxyacetyl)amino]cyclohexyl}-6-methyl-5H-pyrrolo[3,2-d]pyrimidine-7-carboxamide]",< 1 nM,< 100 nM
"CCc1ccc(OCC2CC2)c(-c2ncnc3c(C(=O)N[C@H]4CC[C@H](NC(=O)[C@H](C)O)CC4)c(C)[nH]c23)c1 [Example F94, 4-[2-(Cyclopropylmethoxy)-5-ethylphenyl]-N-(trans-4-{[(2S)-2-hydroxypropanoyl]amino}cyclohexyl)-6-methyl-5H-pyrrolo[3,2-d]pyrimidine-7-carboxamide]",< 1 nM,< 100 nM
"CCc1ccc(OCC2CC2)c(-c2ncnc3c(C(=O)N[C@H]4CC[C@@H](NC(=O)CO)CC4)c(C)[nH]c23)c1 [Example F95, 4-[2-(Cyclopropylmethoxy)-5-ethylphenyl]-N-{cis-4-[(hydroxyacetyl)amino]cyclohexyl}-6-methyl-5H-pyrrolo[3,2-d]pyrimidine-7-carboxamide]",< 1 nM,< 100 nM
"CCc1ccc(OCC2CC2)c(-c2ncnc3c(C(=O)NC4CCC(NC(=O)C(C)O)CC4)c(C)[nH]c23)c1 (stereo not drawn) [Example F96, 4-[2-(Cyclopropylmethoxy)-5-ethylphenyl]-N-(cis-4-{[(25)-2-hydroxypropanoyl]amino}cyclohexyl)-6-methyl-5H-pyrrolo[3,2-d]pyrimidine-7-carboxamide]",< 1 nM,< 100 nM
"Cc1[nH]c2c(-c3cc(C(C)C)ccc3OCC3CC3)ncnc2c1C(=O)NC1CCN(C(=O)[C@H](C)O)CC1 [Example F99, 4-[2-(Cyclopropylmethoxy)-5-(propan-2-yl)phenyl]-N-{1-[(2S)-2-hydroxypropanoyl]piperidin-4-yl}-6-methyl-5H-pyrrolo[3,2-d]pyrimidine-7-carboxamide]",< 1 nM,100 to 1000 nM
"Cc1[nH]c2c(-c3cc(C(C)C)ccc3OCC3CC3)ncnc2c1C(=O)N[C@H]1CC[C@H](NC(=O)[C@H](C)O)CC1 [Example F100, 4-[2-(Cyclopropylmethoxy)-5-(propan-2-yl)phenyl]-N-(trans-4-{[(2S)-2-hydroxypropanoyl]amino}cyclohexyl)-6-methyl-5H-pyrrolo[3,2-d]pyrimidine-7-carboxamide]",< 1 nM,100 to 1000 nM
"Cc1[nH]c2c(-c3cc(C(C)C)ccc3OCC3CC3)ncnc2c1C(=O)N[C@H]1CC[C@@H](NC(=O)[C@H](C)O)CC1 [Example F101, 4-[2-(Cyclopropylmethoxy)-5-(propan-2-yl)phenyl]-N-(cis-4-{[(2S)-2-hydroxypropanoyl]amino}cyclohexyl)-6-methyl-5H-pyrrolo[3,2-d]pyrimidine-7-carboxamide]",< 1 nM,100 to 1000 nM
"Cc1ccc(OCC2CC2)c(-c2nc(C)nc3c(C(=O)NC4CCN(C(=O)CO)CC4)c(C)[nH]c23)c1 [Example F106, 4-[2-(Cyclopropylmethoxy)-5-methylphenyl]-N-[1-(hydroxyacetyl)piperidin-4-yl]-2,6-dimethyl-5H-pyrrolo[3,2-d]pyrimidine-7-carboxamide]",< 1 nM,100 to 1000 nM
"CC(=O)N1CCC(NC(=O)c2c(C)[nH]c3c(-c4cc(C(F)F)ccc4OCC4CC4)ncnc23)CC1 [Example P1, N-(1-Acetylpiperidin-4-yl)-4-[2-(cyclopropylmethoxy)-5-(difluoromethyl)phenyl]-6-methyl-5H-pyrrolo[3,2-d]pyrimidine-7-carboxamide]",< 1 nM,< 100 nM
"CCC(=O)N1CCC(NC(=O)c2c(C)[nH]c3c(-c4cc(C(F)F)ccc4OCC4CC4)ncnc23)CC1 [Example P2, 4-[2-(Cyclopropylmethoxy)-5-(difluoromethyl)phenyl]-6-methyl-N-(1-propanoylpiperidin-4-yl)-5H-pyrrolo[3,2-d]pyrimidine-7-carboxamide]",< 1 nM,< 100 nM
"COCC(=O)N1CCC(NC(=O)c2c(C)[nH]c3c(-c4cc(C(F)F)ccc4OCC4CC4)ncnc23)CC1 [Example P3, 4-[2-(Cyclopropylmethoxy)-5-(difluoromethyl)phenyl]-N-[1-(methoxyacetyl)piperidin-4-yl]-6-methyl-5H-pyrrolo[3,2-d]pyrimidine-7-carboxamide]",1 to 10 nM,< 100 nM
"CC(=O)N[C@H]1CC[C@H](NC(=O)c2c(C)[nH]c3c(-c4cc(C(F)F)ccc4OCC4CC4)ncnc23)CC1 [Example P6, N-[trans-4-(Acetylamino)cyclohexyl]-4-[2-(cyclopropylmethoxy)-5-(difluoromethyl)phenyl]-6-methyl-5H-pyrrolo[3,2-d]pyrimidine-7-carboxamide]",< 1 nM,< 100 nM
"CCC(=O)N[C@H]1CC[C@H](NC(=O)c2c(C)[nH]c3c(-c4cc(C(F)F)ccc4OCC4CC4)ncnc23)CC1 [Example P7, 4-[2-(Cyclopropylmethoxy)-5-(difluoromethyl)phenyl]-6-methyl-N-[trans-4-(propanoylamino)cyclohexyl]-5^H-pyrrolo[3,2-d]pyrimidine-7-carboxamide]",< 1 nM,< 100 nM
"COCC(=O)N[C@H]1CC[C@H](NC(=O)c2c(C)[nH]c3c(-c4cc(C(F)F)ccc4OCC4CC4)ncnc23)CC1 [Example P8, 4-[2-(Cyclopropylmethoxy)-5-(difluoromethyl)phenyl]-N-{trans-4-[(methoxyacetyl)amino]cyclohexyl}-6-methyl-5H-pyrrolo[3,2-d]pyrimidine-7-carboxamide]",< 1 nM,< 100 nM
"CC(=O)N1C[C@@H](NC(=O)c2c(C)[nH]c3c(-c4cc(C(F)F)ccc4OCC4CC4)ncnc23)C[C@@H]1C [Example P24, N-[(3S,5S)-1-Acetyl-5-methylpyrrolidin-3-yl]-4-[2-(cyclopropylmethoxy)-5-(difluoromethyl)phenyl]-6-methyl-5H-pyrrolo[3,2-d]pyrimidine-7-carboxamide]",1 to 10 nM,< 100 nM
"CCC(=O)N1C[C@@H](NC(=O)c2c(C)[nH]c3c(-c4cc(C(F)F)ccc4OCC4CC4)ncnc23)C[C@@H]1C [Example P25, 4-[2-(Cyclopropylmethoxy)-5-(difluoromethyl)phenyl]-6-methyl-N-[(3S,5S)-5-methyl-1-propanoylpyrrolidin-3-yl]-5H-pyrrolo[3,2-d]pyrimidine-7-carboxamide]",1 to 10 nM,< 100 nM
